# Read-outs that look alike come from different tables or passages of the source.
# Columns and labels:
# [1] = cited from earlier work
# [2] = Solubility check in organic oil solutions (78% oil, 20% benzyl benzoate, 2% benzyl alcohol); type: physicochemical; conditions: 25 °C; for solubility: oil or lipid, thermodynamic from solid, average of three; for solubility compared among the four esters (in words): oil solutions, comparison with the acetate ester
# Description: The solubility for the four esters (mg/mL) was measured in solutions of various organic oils: medium-chain triglyceride (MCT), grape seed oil (GSO), castor oil, cottonseed oil, apricot oil, and sesame oil.
# Each solution was composed of a mixture of benzyl benzoate, benzyl alcohol, and oil having a volumetric ratio of 78% oil, 20% benzyl benzoate, and 2% benzyl alcohol. In various pharmaceutical preparations of lipophilic compounds, including various steroids, benzyl benzoate is used as a solubiliser (co-solvent), benzyl alcohol acts as a solvent and at the same time prevents microbial growth and increases the lipid solubility of various esterified compounds, while the oils are used as carriers.
# In order to obtain good accuracy, three such procedures were carried out, and their average was used.
# [3] = set-up: method as in PMID 8095531; conditions: microemulsion study, cited from earlier work
# [4] = esterified forms of testosterone, intramuscular injections
# [5] = apricot oil / benzyl benzoate / benzyl alcohol solution, apricot oil 78% / benzyl benzoate 20% / benzyl alcohol 2%, read-out: Solubility APRICOT
# [6] = castor oil / benzyl benzoate / benzyl alcohol solution, castor oil 78% / benzyl benzoate 20% / benzyl alcohol 2%, read-out: Solubility CASTOR
# [7] = cottonseed oil / benzyl benzoate / benzyl alcohol solution, cottonseed oil 78% / benzyl benzoate 20% / benzyl alcohol 2%, read-out: Solubility COTTON
# [8] = grape seed oil / benzyl benzoate / benzyl alcohol solution, grape seed oil 78% / benzyl benzoate 20% / benzyl alcohol 2%, read-out: Solubility GSO
# [9] = medium-chain triglyceride 78% / benzyl benzoate 20% / benzyl alcohol 2%, read-out: Solubility MCT
# [10] = sesame oil / benzyl benzoate / benzyl alcohol solution, sesame oil 78% / benzyl benzoate 20% / benzyl alcohol 2%, read-out: Solubility SESAME
smiles,measurement,setting,value
"CC(=O)OC1CCC2C3CCC4=CC(=O)CCC4(C)C3CCC12C (stereo not drawn) [TAce, Androst-4-en-17β-ol-3-one 17β-acetate]",Half-life (days),[1]; column of Table S2,less than one day
same,half-life,[1]; [4],less than 1 days
same,solubility,[2]; [5],82.5 mg/mL
same,solubility,[2]; [6],162 mg/mL
same,solubility,[2]; [7],98.8 mg/mL
same,solubility,[2]; [8],98.8 mg/mL
same,solubility,[2]; [9],120 mg/mL
same,solubility compared among the four esters (in words),[2],lowest solubility
same,solubility,[2]; [10],99 mg/mL
"CC(C)CCC(=O)OC1CCC2C3CCC4=CC(=O)CCC4(C)C3CCC12C (stereo not drawn) [TIso, Androst-4-en-17β-ol-3-one 17β-4-methylpentanoate]",half-life,[1]; [4],74.4 h
same,solubility compared among the four esters (in words),[2],roughly four-fold greater solubility
"CC12CCC(=O)C=C1CCC1C2CCC2(C)C(OC(=O)CCc3ccccc3)CCC12 (stereo not drawn) [TPhp, Androst-4-en-17β-ol-3-one 17β-phenylpropionate]",half-life,[1]; [4],60 h
"CCC(=O)O[C@H]1CC[C@H]2[C@@H]3CCC4=CC(=O)CC[C@]4(C)[C@H]3CC[C@]12C [TPro, Androst-4-en-17β-ol-3-one 17β-propionate]",concentration obtained in dimethoxytetraethylene glycol,[3],12000 µg/mL
same,concentration supported in soybean oil,[3],3420 µg/mL
same,half-life,[1]; column of Table S2,24 h
same,half-life,[1]; [4],24 h
same,solubility,[2]; [5],127 mg/mL
same,solubility,[2]; [6],194 mg/mL
same,solubility,[2]; [7],174 mg/mL
same,solubility,[2]; [8],152 mg/mL
same,solubility,[2]; [9],185 mg/mL
same,solubility,[2]; [10],189 mg/mL
CC(=O)O[C@]1(C(C)=O)CC[C@H]2[C@@H]3C[C@H](C)C4=CC(=O)CC[C@]4(C)[C@H]3CC[C@@]21C [medroxyprogesterone acetate],concentration obtained in dimethoxytetraethylene glycol,[3],1320 µg/mL
same,concentration supported in soybean oil,[3],2160 µg/mL
"C[C@]12CC[C@H]3[C@@H](CCC4=CC(=O)CC[C@@]43C)[C@@H]1CC[C@@H]2O [testosterone base, 17β-hydroxyandrost-4-en-3-one]",half-life,[1]; testosterone base (no ester),a few hours
CCCCCCC(=O)O[C@H]1CC[C@H]2[C@@H]3CCC4=CC(=O)CC[C@]4(C)[C@H]3CC[C@]12C [testosterone enanthate],concentration obtained in dimethoxytetraethylene glycol,[3],91200 µg/mL
same,concentration supported in soybean oil,[3],31500 µg/mL

# Reference: paper PMC9611952, “Structural Aspects and Intermolecular Energy for Some Short Testosterone Esters” (Materials, 2022)
